These results are taken from patent publication US6555710B1, “Aminobenzophenones as inhibitors of IL-1 β and TNF-α” (Leo Pharmaceutical Products Ltd a/s Lovens Kemiske Fabrik …, priority 1999, dated 2003).

Format in all cases: cell-based
One experiment relates to IL-1β. Put plainly: Inhibition of IL-1β secretion in LPS stimulated peripheral blood mononuclear cells (ELISA). To be noted: PBMC; LPS stimulated human peripheral blood mononuclear cells, 18 hours; read-out: The median inhibition concentration (IC50) of IL-1β. The procedure:
(§1) To study the effect of the compound of the present invention in vitro the inhibition of the IL-1β and TNF-α secretion was measured using the following procedure:
(§2) Cytokine production was measured in the media from lipopolysaccharide (LPS) stimulated peripheral blood mononuclear cells. The mononuclear cells were isolated from human peripheral blood by Lymphoprep® (Nycomed, Norway) fractionation and suspended in RPMI 1640 (growth medium) with foetal calv serum (FCS, 2%), at a concentration of 5×10^5 cells/ml. The cells were incubated in 24-well tissue culture plates in 1 ml aliquots. Test compounds were dissolved in dimethylsulfoxide (DMSO, 10 mM) and were diluted with the medium. Compounds were added to the cells for 30 minutes, then LPS ([…] final concentration) was added. The plates were incubated for 18 hours, and the concentration of IL-1β and TNF-α in the medium was determined by enzyme-linked immunosorbent assays. The median inhibitory concentrations (IC50) of the compounds were calculated.

Another experiment has as its system TNF-α. Put plainly: Inhibition of TNF-α secretion in LPS stimulated peripheral blood mononuclear cells (ELISA). The note with it: PBMC; LPS stimulated human peripheral blood mononuclear cells, 18 hours; read-out: The median inhibition concentration (IC50) of TNF-α. The procedure:
as §1, §2

Experiment [1] deals with Human polymorphonuclear (PMN) granulocytes. Put plainly: Inhibition of PMN superoxide secretion (ferricytochrome C reduction, TNF-α primed, fMLP stimulated). The note with it: read-out: The median inhibition concentration (IC50) of PMN-superoxide. The procedure: The compounds of the present invention also show similar activities in the ability to inhibit PMN (polymorphonuclear) superoxide secretion which is also indicative of potentially useful anti-inflammatory drugs. The compounds were tested using the following procedure:
Human polymorphonuclear (PMN) granulocytes were isolated from human blood by dextran sedimentation, Lymphoprep® fractionation and hypotonic lysis of contaminating erythrocytes. Superoxide anion generation was measured as the superoxide dismutase inhibitable reduction of ferricytochrome C (Madhu, S. B. et al, Inflammation, 16, 241, (1992)). The cells were suspended in Hanks' balanced salt solution, and incubated for 10 minutes at 37° C. with test compounds. The cells were primed by the addition of TNF-α (3 ng/ml final concentration) for 10 minutes, and then ferricytochrome C, (final concentration 750 μg/ml), bovine serum albumin (BSA, final concentration 1 mg/ml) and formyl-methionyl-leucyl-phenylalanine (fMLP, final concentration 10^−7 M) were added for 3 minutes. The cells were chilled on ice, and were spun down. The optical densities in the cell-free supernatant was measured in a spectrophotometer. The median inhibitory concentration (IC50) of the compounds was calculated.

In the case of `Cc1ccccc1C(=O)c1ccc(Nc2ccc(Br)cc2NC(=O)C(F)(F)F)cc1Cl` [Compound 101, 2,2,2-Trifluoro-N-[5-bromo-2-[3-chloro-4-(2-methylbenzoyl)-phenylamino]-phenyl]acetamide], the IC50 was found to be 32 nM with IL-1β, 6.3 nM with TNF-α and 13 nM in experiment [1].

Turning to `Cc1ccccc1C(=O)c1ccc(Nc2ccccc2NC(=O)C(F)(F)F)cc1Cl` [ref. b), 2,2,2-Trifluoro-N-[2-[3-chloro-4-(2-methylbenzoyl)-phenylamino]-phenyl]acetamide, reference compound], the IC50 was determined as 20 nM in the experiment on IL-1β, 4 nM in the experiment with TNF-α and 13 nM in experiment [1].

For `Cc1ccccc1C(=O)c1ccc(Nc2ccc(F)cc2NC(=O)C(F)(F)F)cc1Cl` [Compound 102, 2,2,2-Trifluoro-N-[2-[3-chloro-4-(2-methylbenzoyl)-phenylamino]-5-fluoro-phenyl]acetamide], the IC50 with IL-1β was determined as 6.3 nM; with TNF-α it was 3.2 nM; in experiment [1], 25 nM.
